Data set [1] has as its system calf thymus histones. Put plainly: Inhibition of histone cytotoxicity for HUVEC (flow cytometry, Calcein-AM/PI). The class given is cell-based. The conditions noted are these: inhibitor 1.6-100 μg/ml; histones 200 μg/ml. The procedure: Different concentrations of calf thymus histones were initially assessed for their toxicity for human umbilical vein endothelial cells (HUVEC) and human microvascular endothelial cells (HMEC). Suspensions of HUVEC/HMEC in Medium199/20% fetal calf serum (FCS) were dispensed into each well of a 96 well plate (1×10^5 cells/well in 50 μl of medium). Calf thymus histones (50 μl/well in M199/20% FCS) were then added to give a final concentration of 100-800 μg/ml followed by 25 μl/well of Calcein-AM in PBS (final concentration 0.04 μM) and 25 propidium iodide (PI) in PBS (final concentration 2.5 μg/ml). Each 96 well plate was incubated at 37° C. for 60 min in a 5% CO2 incubator, placed on ice and the contents of each well analysed by flow cytometry for viable and dead cells. Viable cells were detected as Calcein-AM-bright and PI-dim and dead cells as Calcein-AM-dim and PI-bright. FIG. 1 depicts a typical viability assay comparing HUVEC cultured alone (9.15% dead, 78.6% viable) with HUVEC cultured for 60 min with 200 μg/ml of calf thymus histones (50.4% dead, 35.6% viable). The toxicity of calf thymus histones for HUVEC and HMEC is shown in detail in FIG. 2, with histone toxicity for HUVEC (FIG. 2A) and HMEC (FIG. 2B) being highly concentration dependent, although HMEC were more resistant to histone toxicity than HUVEC. […]

Data set [2] deals with calf thymus histones. In words: Inhibition of histone killing of HMEC (flow cytometry, Calcein-AM/PI). To be noted: for inhibitory activity on histone toxicity (in words) / % histone killing ± SEM: HMEC; for inhibitory activity on histone toxicity (in words): Table 1 discussion; for % histone killing ± SEM: compounds at 50 μg/ml, calf thymus histones 400 μg/ml; for inhibition of cytotoxic effects of histones for HMEC: histones 400 μg/ml. The class given is cell-based. The protocol:
Different concentrations of calf thymus histones were initially assessed for their toxicity for human umbilical vein endothelial cells (HUVEC) and human microvascular endothelial cells (HMEC). Suspensions of HUVEC/HMEC in Medium199/20% fetal calf serum (FCS) were dispensed into each well of a 96 well plate (1×10^5 cells/well in 50 μl of medium). Calf thymus histones (50 μl/well in M199/20% FCS) were then added to give a final concentration of 100-800 μg/ml followed by 25 μl/well of Calcein-AM in PBS (final concentration 0.04 μM) and 25 propidium iodide (PI) in PBS (final concentration 2.5 μg/ml). Each 96 well plate was incubated at 37° C. for 60 min in a 5% CO2 incubator, placed on ice and the contents of each well analysed by flow cytometry for viable and dead cells. Viable cells were detected as Calcein-AM-bright and PI-dim and dead cells as Calcein-AM-dim and PI-bright. FIG. 1 depicts a typical viability assay comparing HUVEC cultured alone (9.15% dead, 78.6% viable) with HUVEC cultured for 60 min with 200 μg/ml of calf thymus histones (50.4% dead, 35.6% viable). The toxicity of calf thymus histones for HUVEC and HMEC is shown in detail in FIG. 2, with histone toxicity for HUVEC (FIG. 2A) and HMEC (FIG. 2B) being highly concentration dependent, although HMEC were more resistant to histone toxicity than HUVEC. Thus, at 100 μg/ml histones killed 15-20% of HUVEC but had no effect on HMEC viability, whereas at 800 μg/ml histones killed >85% of HUVEC and ˜55% of HMEC ([…]). In subsequent inhibition experiments calf thymus histones were used at 200 μg/ml for HUVEC and 400 μg/ml for HMEC, these concentrations resulting in ˜50% killing of both populations of endothelial cells.
In inhibition experiments the inhibitor (final concentration ranging from 1.6-100 μg/ml) was mixed with calf thymus histones (final concentration 200 or 400 μg/ml) prior to the addition of HUVEC/HMEC, Calcein-AM and PI to each well.
Using HMEC as the endothelial cell target similar inhibitory effects of maltotriose sulfate (FIG. 6) and the other sulfated oligosaccharides (Table 1) on histone toxicity was observed. In fact, a more detailed analysis of the inhibitory activity of a range of polyanions on histone toxicity, using HMEC as the target endothelial cell, is shown in Table 1.

In the next data set the test system is radiolabelled histones. Put plainly: Blockade of radiolabelled histone accumulation in rabbit lungs (gamma scintigraphy). Format: in vivo. The conditions noted are these: 15 mg/kg intravenously 15 minutes before radiolabel.
Data set [3] deals with lipopolysaccharide (LPS)-induced mouse model of sepsis. In words: LPS-induced mouse model of sepsis. Format: in vivo. The procedure:
A study was conducted to assess in vivo efficacy of test articles 1 (maltotriose sulfate; TA1), 2 (cellobiose sulfate; TA2), and 3 (heparin; TA3) in a lipopolysaccharide (LPS)-induced mouse model of sepsis. Endotoxemia was induced by intraperitoneal (i.p.) injection with LPS on day 1. Test articles were co-administered i.p. on day 1, and then dosed daily i.p. for an additional 2 days.

The mark [4] stands for this setting: 15 mg/kg i.p. daily x3, LPS 50 mg/kg.
The mark [5] stands for this setting: 15 mg/kg i.p. daily x3, with LPS.
The mark [6] stands for this setting: 100 mg/kg i.p. daily x3, with LPS.

The values that follow come from patent publication US9226939B2, “Histone inhibition” (THE AUSTRALIAN NATIONAL UNIVERSITY, priority 2010, dated 2016).

Consider maltose sulfate [Maltose SO4], for which the “inhibitory activity on histone cytotoxicity for HUVEC (in words)” value in the data set with calf thymus histones [1] is reported as “weak inhibitor”. For the same compound, in the data set with calf thymus histones [2], the “inhibitory activity on histone toxicity (in words)” value is “weaker inhibitors” and the “% histone killing ± SEM” value was 77.1 ± 4.7%.
With “β-cyclodextrin sulfate [β-cyclodextrin SO4]”, the “inhibitory activity on histone cytotoxicity for HUVEC (in words)” value in the data set on calf thymus histones [1] was “almost as active as the linear maltotriose sulfate and maltopentaose sulfate”. Further, in the data set with calf thymus histones [2], the “inhibitory activity on histone toxicity (in words)” value was “active”.
Turning to Carboxylated β-cyclodextrin, in the data set on calf thymus histones [2], the “inhibitory activity on histone toxicity (in words)” value is reported as “not” and the “% histone killing ± SEM” value was 105.8 ± 19.9%.
On to cellobiose sulfate [Cellobiose SO4], for which the “inhibitory activity on histone toxicity (in words)” value in the data set on calf thymus histones [2] is listed as “potent inhibitor”. Moreover, in the data set on radiolabelled histones, the “accumulation of radiolabelled histones in the lung” value (“accumulation” for short) is “blocked”. Besides, the “survival (Kaplan-Meier)” value in data set [3] (setting [4]) is on record as “extended survival”; in data set [3] (100 mg/kg i.p. daily x3, LPS 50 mg/kg), “extended survival”. In addition, the tolerability entry in data set [3] (setting [5]) and in data set [3] (setting [6]) was “well tolerated” in each case.
As for “Isomaltotriose sulfate [Isomaltotriose SO4]”, the “% histone killing ± SEM” value in the data set with calf thymus histones [2] was 49.5 ± 5.4%.
For sodium maltohexaose sulfate, in the data set with radiolabelled histones, the “accumulation” value is recorded as “blocked”.
With panose sulfate [Panose SO4], the “inhibitory activity on histone toxicity (in words)” value in the data set on calf thymus histones [2] is “more active than sulfated isomaltotriose”.
The same measure, in the same setting: under “low molecular weight heparin [reference compound]” stands “active”.
For the compound `O=S(=O)(O)OC[C@H]1O[C@@](COS(=O)(=O)O)(O[C@H]2O[C@H](COS(=O)(=O)O)[C@@H](OS(=O)(=O)O)[C@H](OS(=O)(=O)O)[C@H]2OS(=O)(=O)O)[C@@H](OS(=O)(=O)O)[C@@H]1OS(=O)(=O)O` [Sucrose octasulfate, reference compound], in the data set on calf thymus histones [2], the “inhibitory activity on histone toxicity (in words)” value was “weaker inhibitors” and the “% histone killing ± SEM” value was 43.5 ± 4.0%.
As for raffinose sulfate [Raffinose SO4], the “inhibitory activity on histone toxicity (in words)” value in the data set on calf thymus histones [2] is recorded as “more active than sulfated isomaltotriose”.
Turning to maltotriose sulfate [Maltotriose SO4], the “inhibitory activity on histone toxicity (in words)” value in the data set on calf thymus histones [2] is “more active than sulfated isomaltotriose”. For the same compound, the figures for the “inhibition of cytotoxic effects of histones for HMEC” value in the data set with calf thymus histones [2] (maltotriose sulfate 25 μg/ml) and in the data set with calf thymus histones [2] (maltotriose sulfate 100 μg/ml) were “totally” and “partially”, respectively. Moreover, in data set [3] (setting [4]), the “survival (Kaplan-Meier)” value is “extended survival”. Further, the figures for the tolerability entry in data set [3] (setting [5]) and in data set [3] (setting [6]) were “better tolerated” and “appeared to produce some toxicity (cluster of deaths) after the third dose”, respectively.
As for sodium maltotetraose sulfate, the “accumulation” value with radiolabelled histones is “blocked”.
With Heparin [reference compound], the “inhibitory activity on histone toxicity (in words)” value in the data set with calf thymus histones [2] is on record as “active”. In addition, the “survival (Kaplan-Meier)” value in data set [3] (1.1 mg/kg i.p. daily x3, LPS 50 mg/kg) is given as “no apparent change in the survival plot compared to the control”. For the same compound, the tolerability entry in data set [3] (1.1 mg/kg i.p. daily x3, with LPS) was “well tolerated”.
As to Propanyl bis-gluconamide SO4, in the data set with calf thymus histones [2], the “inhibitory activity on histone toxicity (in words)” value is given as “some inhibitory activity” and the “% histone killing ± SEM” value was 27.8 ± 1.5%.
